Results on one compound are retold here after patent US20250051324A1, “PARP INHIBITOR, PHARMACEUTICAL COMPOSITION COMPRISING SAME, AND USE THEREOF” (KEYTHERA (SUZHOU) BIO-PHARMACEUTICALS CO., LIMITED, priority 2021, published 2025).

For this series, the system named is human breast cancer (MDA-MB-436) cell line. Kind of series: Mouse CDX tumor model (MDA-MB-436 subcutaneous xenograft). The format is in vivo. As to conditions: for Tumor Growth Inhibition Rate (TGI): 28 days. As to the method: Test Objective: The efficacy of the compounds was evaluated in a subcutaneous xenograft model of human breast cancer (MDA-MB-436) cell line in mice.
Test Compounds: Olaparib, Compound 1
Experimental Animals: Female NOD SCID mice, 4-5 weeks old, purchased from Nanjing Jicui.
Housing and Management: The experimental animals were housed in SPF-grade, temperature- and humidity-controlled clean rooms, using individually ventilated cages (IVC) with no more than 5 mice per cage. Temperature/humidity was controlled within the range of (23±3)° C./40-70%. Feed and water: SPF-grade mouse feed, sterilized by cobalt-60 irradiation. Drinking water was ultrafiltered and autoclaved. Animals had free access to sterile food and water. Animal identification: ear tags.
Tumor Cell Line and Tumor Model: MDA-MB-436 cells (Nanjing Cobioer Biotechnology Co., Ltd., Cat. No: CBP60385) were cultured in vitro in DMEM complete medium containing 10% fetal bovine serum, 1% penicillin-streptomycin, 1% insulin, and 16 μg/mL glutathione (37° C., 5% CO2). When the cells met the requirements for the in vivo efficacy experiment, they were collected, counted, and prepared into a PBS cell suspension. Each mouse (5-6 weeks old NOD SCID) was inoculated subcutaneously on the right flank with 0.9×10^7 cells. Tumor volume was measured and calculated three times a week after inoculation. When the tumor volume reached approximately 200-300 mm^3, the mice were grouped for administration.
Experimental Groups: The experiment was divided into the following groups: vehicle control group; Olaparib 100 mg/kg group; Compound 1 0.1 mg/kg group; Compound 1 0.3 mg/kg group; and Compound 1 1.0 mg/kg group. All groups were administered orally by gavage once daily. […] After 28 days of administration, the tumor volume was used to calculate the tumor growth inhibition rate (TGI %), and the tumor inhibition effect was statistically analyzed using software such as Excel, etc.

With `CNC(=O)c1ccc(N2CCN(Cc3cnc4c(C)c(C(F)(F)F)c(=O)[nH]c4c3)CC2)cn1` [Compound 1, N-methyl-5-(4-((8-methyl-6-oxo-7-(trifluoromethyl)-5,6-dihydro-1,5-naphthyridin-3-yl)methyl)piperazin-1-yl)picolinamide], the “Tumor Growth Inhibition Rate (TGI)” value (0.1 mg/kg oral once daily) turned out to be 89%, the “Tumor Growth Inhibition Rate (TGI)” value (0.3 mg/kg oral once daily) stood at 113% and the “Tumor Growth Inhibition Rate (TGI)” value (1.0 mg/kg oral once daily) worked out at 115%. Moreover, for the setting “MDA-MB-436 model, all treatment groups”, the “Body weight vs vehicle control group” value is “no significant difference”.
